Test system: Human umbilical vein endothelial cells
Test: HUVEC culture 72 hours, fast green staining, image analysis count of NSD and MCAD cells
Details: for number of cells per field exhibiting MCAD: vehicle alone approximately 10; for number of cells showing non-specific cell death (NSD): vehicle alone approximately 125
Method: After 72 hours, the cells were stained with fast green and sedimented on microscope slides with a Cytospin™ centrifuge. Endothelial cells with non-specific death (NSD) stain pale blue green and endothelial cells with specific, massive-calcium accumulation death (MCAD) stain densely refractile hyperchromatic blue-black. The number of each type of cell was quantified using image analysis software.

Compound | number of cells per field exhibiting MCAD [cells per field] | number of cells showing non-specific cell death (NSD)
COc1cccc2c1C(=O)c1c(O)c3c(c(O)c1C2=O)C[C@@](O)(C(=O)CO)C[C@@H]3O[C@H]1C[C@H](N)[C@H](O)[C@H](C)O1 [doxorubicin] | 4 | 160 cells per field
bevacizumab [Avastin ®] | 35 | about 100 cells per field

From patent publication US8623613B2, “Method to detect endothelial cell massive calcium accumulation death” (priority 2010, dated 2014)
